Test results published in patent US8603518B2, “Hydroxybutyrate and poly-hydroxybutyrate as components of animal feed or feed additives” (Universiteit Gent, priority 2006, dated 2013).

Legend:
[1] = system: Artemia nauplii infected with Vibrio campbellii LMG21363; experiment: In vivo challenge test of Artemia nauplii with Vibrio campbellii LMG21363 (Example 8); parameters: species or system Artemia franciscana; conditions: 2 days challenge, mean ± standard error
Method: All challenge tests were performed with high quality hatching cysts of Artemia franciscana (EG® Type, batch 6940, INVE Aquaculture, Baasrode, Belgium). Two hundred mg of cysts were hydrated in 18 ml of tap water during 1 h. Sterile cysts and nauplii were obtained via decapsulation, adapted from the protocol described by Marques et al. (2004). […] The decapsulation was stopped after 2 min by adding 14 ml of Na2S2O3 (10 gl^−1). During the reaction, 0.22 μm filtered aeration was provided. The decapsulated cysts were washed with autoclaved artificial seawater containing 35 g l^−1 of Instant Ocean synthetic sea salt (Aquarium Systems Inc., Sarrebourg, France). The cysts were resuspended in a 50 ml tube containing 30 ml of filtered and autoclaved artificial seawater and hatched for 24 h on a rotor (4 min^−1) at 28° C. with constant illumination (approximately 2000 lux). Vibrio campbellii LMG21363 was stored in 40% glycerol at −80° C. Ten μl of this stored culture was inoculated into fresh Marine Broth (Difco Laboratories, Detroit, USA) and incubated overnight at 28° C. under constant agitation (100 min-1). The grown cultures of Vibrio campbellii were washed in autoclaved artificial seawater and the suspensions were diluted to an OD600 of approximately 0.1. 20 μl of the diluted suspensions was inoculated into the Artemia culture water. Aeromonas hydrophila LVS3 was used as feed for the nauplii (Defoirdt et al., 2005). The strain was grown overnight on Marine Agar (Difco Laboratories, Detroit, USA), suspended in sterile artificial seawater, diluted to an OD600 of approximately 1 and autoclaved. 300 μl of the autoclaved suspension was added to the Artemia culture water. […] Challenge tests were performed as described by Defoirdt et al. (2005), with slight modifications. Briefly, after hatching, groups of 20 nauplii were transferred to new sterile 50 ml tubes that contained 20 ml of filtered and autoclaved artificial seawater. The tubes were inoculated with Vibrio campbellii LMG21363 (except for the control, where no pathogen was added) and fed with LVS3. For the experiment with fatty acids, the fatty acids were dissolved in artificial seawater at different concentrations (25, 50 and 100 mM). The pH of the solutions was brought back to 7 and the solutions were filtersterilised over a 0.22 μm filter (Millipore, Bedford, USA). After feeding and the addition of the appropriate chemical and/or bacteria, the falcon tubes were put back on the rotor and kept at 28° C. […] All manipulations were done under a laminar flow hood in order to maintain sterility of the cysts and nauplii. Each treatment was done in triplicate.

broiler chickens [2] = experiment: Growth performance trial with broiler chickens, day 8 to day 22 (Rhodobacter sphaeroides biomass); type: in vivo, chickens (ROSS PM3); conditions: dose 10 mg/kg
Method: A growth performance trial with broiler chickens was performed from day 8 to day 22. The chickens were housed in wire-floored battery cages. From day-old until day 8, the chickens were fed a pre-experimental diet based on wheat, maize and soybean meal. In the experimental period (day 8 to 22) the chickens received diets based on wheat, rye and soybean meal (composition see Table 1). Groups of birds were weighed on days 8, 15, and 22. The feed consumption for the intermediate periods was determined and body weight gain and feed conversion ratio were calculated.

broiler chickens [3] = experiment: Second broiler chicken growth trial with crystalline PHB, day 8 to day 29; type: in vivo; conditions: Day 8-29; dose 10 mg/kg
[4] = system: Vibrio campbellii LMG21363; experiment: Growth of Vibrio campbellii LMG21363 in LB medium (OD600); type: cell-based; conditions: pH 6
Method: Vibrio campbellii LMG21363 was grown overnight in LB medium on a shaker at 28° C. Subsequently, the suspension was diluted 1:50 (v/v) in LB medium supplemented with butyrate (Sigma-Aldrich, Bornem, Belgium) or β-hydroxybutyrate (Sigma-Aldrich, Bornem, Belgium). For each compound, three solutions were made with the following concentrations: 25, 50 and 100 mM. LB medium without supplements was used as a control. The pH of all solutions was set at 6, 7 or 8. After inoculation, the suspensions were incubated at 28° C. in a static mode. Growth was monitored by measuring the optical density (OD600) during 20 h. Each treatment was performed in triplicate.

[5] = 25 mM in culture water at start
[6] = 100 mM in culture water at start

## CCCC(=O)O [butyrate]
[1]; [5]
  Survival: 48 ± 2 %
[1]; [6]
  Survival: 50 ± 5 %

## COC[C@H]1O[C@@H](OC2OC[C@@H]3O[C@]4(O[C@H]3[C@H]2OC(=O)C(C)C)O[C@H](C)[C@@](O)(C(C)=O)[C@@H]2OCO[C@H]24)[C@@H](OC)[C@@H](O)[C@@H]1O[C@@H]1O[C@H](C)[C@H](OC)[C@H](O[C@H]2C[C@@]3(C)OC4(C[C@@H](O)[C@H](O[C@H]5C[C@@H](O)[C@H](OC(=O)c6c(C)c(Cl)c(O)c(Cl)c6OC)[C@@H](C)O5)[C@@H](C)O4)O[C@@H]3[C@@H](C)O2)[C@H]1O (stereo partly drawn) [Avilamycin]
Broiler chickens [2]; Day 8-15
  Feed conversion: 1.652 ± 0.090 g feed/g gain
  Feed intake: 552 ± 43 g/bird
  Weight gain: 334 ± 20 g/bird
Broiler chickens [2]; Day 8-22
  Feed conversion: 1.778 ± 0.072 g feed/g gain
  Feed conversion relative to control (control 100.0): 94.9
  Feed intake: 1441 ± 100 g/bird
  Feed intake relative to control (control 100.0): 101.1
  Weight gain: 810 ± 39 g/bird
  Weight gain relative to control (control 100.0): 106.7
Broiler chickens [2]; Day 15-22
  Feed conversion: 1.867 ± 0.078 g feed/g gain
  Feed intake: 889 ± 67 g/bird
  Weight gain: 476 ± 24 g/bird
Broiler chickens [3]
  FCR: 1.756 ± 0.079 g feed/g gain
  FCR, % of control: 94.5%
  Feed intake: 2402 ± 196 g/bird
  Feed intake, % of control: 101.0%
  Weight gain: 1367 ± 85 g/bird
  Weight gain, % of control: 106.6%

## CC(O)CC(=O)O (stereo not drawn) [β-hydroxybutyrate, 3-hydroxybutyrate]
[4]; 100 mM
  Growth of Vibrio campbellii: strongly inhibited
[4]; lower concentrations
  Growth of Vibrio campbellii: not completely inhibited
[1]; [5]
  Survival: 38 ± 15%
[1]; [6]
  Survival: 40 ± 3 %
